{"source": "patent US20260090997A1", "about": "“Lipid Nanoparticles Comprising Nucleic Acids Encoding Therapeutic Genes and Uses in Medical Methods” (priority 2022, published 2026)", "tested_on": "FADU xenografts", "test": "Intratumoral NanoLuc mRNA delivery into FADU xenografts, bioluminescence", "assay_type": "in vivo, Nu/J mice", "settings": "LNPs containing MC3, cKK-E12, SM-102 or C12-200", "excerpt": "FIG. 5A illustrates different LNPs formulated to carry NanoLuc reporter mRNA to evaluate effective intratumoral injections into FADU xenografts. To identify the most suitable ionizable lipid for intratumoral delivery, an in vivo imaging system was used to quantify the bioluminescence resulting from the functional delivery of NanoLuc mRNA using LNPs containing four different ionizable lipids: MC3, cKK-E12, SM-102, and C12-200."}
{"smiles": "CCCCCCCCCCC(O)CN(CCN1CCN(CCN(CC(O)CCCCCCCCCC)CC(O)CCCCCCCCCC)CC1)CCN(CC(O)CCCCCCCCCC)CC(O)CCCCCCCCCC", "note": "(stereo not shown) [C12-200]", "values": [{"measurement": "bioluminescence from functional delivery of NanoLuc mRNA, comparison of ionizable lipids", "value": "optimal ionizable lipid"}]}
